Test results as given in patent publication US8440708B2, “Triazole-substituted arylamides as P2X3 and P2X2/3 antagonists” (Roche Palo Alto LLC, priority 2007, dated 2013).
Where two headings read alike, the source gives them in different places.

Assays:
rat P2X3 receptor = target: T1, rat P2X3 receptor (Rattus norvegicus, UniProt P49654); experiment: P2X3/P2X2/3 FLIPR (Fluorometric Imaging Plate Reader) Assay, P2X3; format: cell-based; details: for Ki: CHO-K1 cells transfected with rat P2X3, agonist α,β-meATP 1 μM, Table 1, read-out: P2X3 pKi (converted)
T1 construct: expressed in transfected cells; host or cells: CHO-K1
T1 sequence (P49654 1-397): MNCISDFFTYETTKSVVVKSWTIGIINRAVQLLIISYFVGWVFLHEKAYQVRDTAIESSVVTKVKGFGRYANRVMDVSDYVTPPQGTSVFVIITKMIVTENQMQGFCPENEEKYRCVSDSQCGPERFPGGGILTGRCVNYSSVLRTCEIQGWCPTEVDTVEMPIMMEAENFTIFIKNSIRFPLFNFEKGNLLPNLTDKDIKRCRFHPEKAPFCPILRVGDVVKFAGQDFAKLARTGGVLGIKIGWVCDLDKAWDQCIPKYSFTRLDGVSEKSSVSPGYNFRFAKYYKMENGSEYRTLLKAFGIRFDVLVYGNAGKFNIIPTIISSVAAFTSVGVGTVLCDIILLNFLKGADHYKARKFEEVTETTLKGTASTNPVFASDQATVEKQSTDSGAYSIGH
Experimental: (§1) P2X3/P2X2/3 FLIPR (Fluorometric Imaging Plate Reader) Assay
(§2) CHO-K1 cells were transfected with cloned rat P2X3 or human P2X2/3 receptor subunits and passaged in flasks. 18-24 hours before the FLIPR experiment, cells were released from their flasks, centrifuged, and resuspended in nutrient medium at 2.5×10^5 cells/ml. The cells were aliquoted into black-walled 96-well plates at a density of 50,000 cells/well and incubated overnight in 5% CO2 at 37° C. On the day of the experiment, cells were washed in FLIPR buffer (calcium- and magnesium-free Hank's balanced salt solution, 10 mM HEPES, 2 mM CaCl2, 2.5 mM probenecid; FB). Each well received 100 μl FB and 100 μl of the fluorescent dye Fluo-3 AM [2 μM final conc.]. After a 1 hour dye loading incubation at 37° C., the cells were washed 4 times with FB, and a final 75 μl/well FB was left in each well.
(§3) Test compounds (dissolved in DMSO at 10 mM and serially diluted with FB) or vehicle were added to each well (25 μl of a 4× solution) and allowed to equilibrate for 20 minutes at room temperature. The plates were then placed in the FLIPR and a baseline fluorescence measurement (excitation at 488 nm and emission at 510-570 nm) was obtained for 10 seconds before a 100 μl/well agonist or vehicle addition. The agonist was a 2× solution of α,β-meATP producing a final concentration of 1 μM (P2X3) or 5 μM (P2X2/3). Fluorescence was measured for an additional 2 minutes at 1 second intervals after agonist addition. A final addition of ionomycin (5 μM, final concentration) was made to each well of the FLIPR test plate to establish cell viability and maximum fluorescence of dye-bound cytosolic calcium. Peak fluorescence in response to the addition of α,β-meATP (in the absence and presence of test compounds) was measured and inhibition curves generated using nonlinear regression. PPADS, a standard P2X antagonist, was used as a positive control.

human P2X2/3 receptor = target: T2, human P2X2/3 receptor (Homo sapiens, UniProt P56373+Q9UBL9); experiment: P2X3/P2X2/3 FLIPR (Fluorometric Imaging Plate Reader) Assay, P2X2/3; format: cell-based
T2 construct: expressed in transfected cells; host or cells: CHO-K1
T2 sequence (Q9UBL9 1-471): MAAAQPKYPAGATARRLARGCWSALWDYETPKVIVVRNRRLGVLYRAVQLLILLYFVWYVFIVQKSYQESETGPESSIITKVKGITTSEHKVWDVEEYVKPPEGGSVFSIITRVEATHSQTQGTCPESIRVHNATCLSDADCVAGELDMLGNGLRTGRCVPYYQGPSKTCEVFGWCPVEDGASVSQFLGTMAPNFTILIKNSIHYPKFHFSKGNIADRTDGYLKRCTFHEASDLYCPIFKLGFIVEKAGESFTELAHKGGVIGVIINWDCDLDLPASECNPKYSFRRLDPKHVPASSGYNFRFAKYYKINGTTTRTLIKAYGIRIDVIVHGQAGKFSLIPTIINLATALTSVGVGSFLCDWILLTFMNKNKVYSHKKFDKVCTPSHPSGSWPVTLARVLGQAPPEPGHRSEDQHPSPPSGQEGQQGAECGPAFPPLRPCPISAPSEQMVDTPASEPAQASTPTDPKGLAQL
T2 sequence (P56373 1-397): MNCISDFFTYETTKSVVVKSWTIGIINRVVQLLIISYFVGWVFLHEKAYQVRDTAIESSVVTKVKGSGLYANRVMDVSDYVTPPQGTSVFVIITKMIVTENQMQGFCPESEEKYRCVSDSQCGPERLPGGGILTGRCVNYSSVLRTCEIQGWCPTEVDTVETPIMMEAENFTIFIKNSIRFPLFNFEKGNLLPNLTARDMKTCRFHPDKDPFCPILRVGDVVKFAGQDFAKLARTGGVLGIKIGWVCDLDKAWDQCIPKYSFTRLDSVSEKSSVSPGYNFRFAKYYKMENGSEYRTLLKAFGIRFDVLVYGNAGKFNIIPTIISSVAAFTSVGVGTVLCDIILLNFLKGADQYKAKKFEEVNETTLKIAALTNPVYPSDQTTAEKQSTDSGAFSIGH
Experimental: as §1, §2, §3

[1] = CHO-K1 cells transfected with human P2X2/3, agonist α,β-meATP 5 μM, Table 1, read-out: P2X2/3 pKi (converted)

| Ki (rat P2X3 receptor) [nM] | Ki (human P2X2/3 receptor; [1]) [nM] | IC50 (rat P2X3 receptor; text b666, CHO-K1 cells, α,β-meATP 1 μM, read-out: pIC50 for the P2X3 receptor (converted)) [nM] | Ki (human P2X2/3 receptor; text b666, CHO-K1 cells, α,β-meATP 5 μM, read-out: pKi for the P2X2/3 receptor (converted)) [nM] | Compound |
| --- | --- | --- | --- | --- |
| 35.5 | 398 |  |  | Cc1ccc(-c2cc(C(=O)NC(C)c3cnccn3)cc(-n3c(C)nnc3C(C)C)c2)cc1 (stereo not drawn) [Compound 31, 5-(3-Isopropyl-5-methyl-[1,2,4]triazol-4-yl)-4′-methyl-biphenyl-3-carboxylic acid (1-pyrazin-2-yl-ethyl)-amide] |
| 427 | 10000 |  |  | COC[C@@H](C)NC(=O)c1cc(-c2ccc(C)cc2)cc(-n2c(C)nnc2C(C)C)c1 [Compound 32, 5-(3-Isopropyl-5-methyl-[1,2,4]triazol-4-yl)-4′-methyl-biphenyl-3-carboxylic acid ((R)-2-methoxy-1-methyl-ethyl)-amide] |
| 4.07 | 1380 |  |  | COC[C@@H](C)NC(=O)c1cc(-c2ccc(C)cc2F)cc(-n2ncnc2C(C)C)c1 [Compound 33, 2′-Fluoro-5-(5-isopropyl-[1,2,4]triazol-1-yl)-4′-methyl-biphenyl-3-carboxylic acid ((R)-2-methoxy-1-methyl-ethyl)-amide] |
| 3.24 | 427 |  |  | Cc1ccc(-c2cc(C(=O)NC(C)CO)cc(-n3ncnc3C(C)C)c2)c(F)c1 (stereo not drawn) [Compound 34, 2′-Fluoro-5-(5-isopropyl-[1,2,4]triazol-1-yl)-4′-methyl-biphenyl-3-carboxylic acid (2-hydroxy-1-methyl-ethyl)-amide] |
| 1.7 | 417 | ~1.7 |  | Cc1ccc(-c2cc(C(=O)N[C@@H](C)CO)cc(-n3ncnc3C(C)C)c2)c(F)c1 [Compound 35, 2′-Fluoro-5-(5-isopropyl-[1,2,4]triazol-1-yl)-4′-methyl-biphenyl-3-carboxylic acid ((S)-2-hydroxy-1-methyl-ethyl)-amide] |
| 3.72 | 22.9 |  | ~22.9 | Cc1ccc(-c2cc(C(=O)NC(C)c3cnccn3)cc(-n3ncnc3C(C)C)c2)c(F)c1 (stereo not drawn) [Compound 36, 2′-Fluoro-5-(5-isopropyl-[1,2,4]triazol-1-yl)-4′-methyl-biphenyl-3-carboxylic acid (1-pyrazin-2-yl-ethyl)-amide] |
| 380 | 6760 |  |  | CCn1nncc1-c1cc(C(=O)N[C@H](C)COC)cc(-c2ccc(C)cc2)c1 [Compound 37, 5-(3-Ethyl-3H-[1,2,3]triazol-4-yl)-4′-methyl-biphenyl-3-carboxylic acid ((R)-2-methoxy-1-methyl-ethyl)-amide] |
| 9.77 | 550 |  |  | CCn1nncc1-c1cc(C(=O)NC(C)c2cnccn2)cc(-c2ccc(C)cc2)c1 (stereo not drawn) [Compound 38, 5-(3-Ethyl-3H-[1,2,3]triazol-4-yl)-4′-methyl-biphenyl-3-carboxylic acid (1-pyrazin-2-yl-ethyl)-amide] |
| 8510 | 10000 |  |  | CCn1cc(-c2cc(C(=O)N[C@H](C)COC)cc(-c3ccc(C)cc3)c2)nn1 [Compound 39, 5-(1-Ethyl-1H-[1,2,3]triazol-4-yl)-4′-methyl-biphenyl-3-carboxylic acid ((R)-2-methoxy-1-methyl-ethyl)-amide] |
| 10000 | 10000 |  |  | CCn1cc(-c2cc(C(=O)N[C@@H](C)CO)cc(-c3ccc(C)cc3)c2)nn1 [Compound 40, 5-(1-Ethyl-1H-[1,2,3]triazol-4-yl)-4′-methyl-biphenyl-3-carboxylic acid ((S)-2-hydroxy-1-methyl-ethyl)-amide] |
| 182 | 7410 |  |  | CCn1cc(-c2cc(C(=O)NC(C)c3cnccn3)cc(-c3ccc(C)cc3)c2)nn1 (stereo not drawn) [Compound 41, 5-(1-Ethyl-1H-[1,2,3]triazol-4-yl)-4′-methyl-biphenyl-3-carboxylic acid (1-pyrazin-2-yl-ethyl)-amide] |
| 7.76 | 813 |  |  | CCn1cnnc1-c1cc(C(=O)NC(C)c2cnccn2)cc(-c2ccc(C)cc2)c1 (stereo not drawn) [Compound 43, 5-(4-Ethyl-4H-[1,2,4]triazol-3-yl)-4′-methyl-biphenyl-3-carboxylic acid (1-pyrazin-2-yl-ethyl)-amide] |
| 81.3 | 759 |  |  | CC(NC(=O)c1cc(-c2ccc(Cl)cc2)cc(-n2ncnc2N(C)C)c1)c1cnccn1 (stereo not drawn) [Compound 44, 4′-Chloro-5-(5-dimethylamino-[1,2,4]triazol-1-yl)-biphenyl-3-carboxylic acid (1-pyrazin-2-yl-ethyl)-amide] |
| 12.9 | 3160 |  |  | COCc1ncnn1-c1cc(C(=O)N[C@@H](C)CO)cc(-c2ccc(C)cc2)c1 [Compound 45, 5-(5-Methoxymethyl-[1,2,4]triazol-1-yl)-4′-methyl-biphenyl-3-carboxylic acid ((S)-2-hydroxy-1-methyl-ethyl)-amide] |
| 5.13 | 204 |  |  | COCc1ncnn1-c1cc(C(=O)NC(C)c2cnccn2)cc(-c2ccc(C)cc2)c1 (stereo not drawn) [Compound 46, 5-(5-Methoxymethyl-[1,2,4]triazol-1-yl)-4′-methyl-biphenyl-3-carboxylic acid (1-pyrazin-2-yl-ethyl)-amide] |
| 4.68 | 2040 |  |  | COC(C)c1ncnn1-c1cc(C(=O)N[C@@H](C)CO)cc(-c2ccc(C)cc2)c1 (stereo partly drawn) [Compound 47, 5-[5-(1-Methoxy-ethyl)-[1,2,4]triazol-1-yl]-4′-methyl-biphenyl-3-carboxylic acid ((S)-2-hydroxy-1-methyl-ethyl)-amide] |
| 3.89 | 43.7 |  |  | COC(C)c1ncnn1-c1cc(C(=O)NC(C)c2cnccn2)cc(-c2ccc(C)cc2)c1 (stereo not drawn) [Compound 48, 5-[5-(1-Methoxy-ethyl)-[1,2,4]triazol-1-yl]-4′-methyl-biphenyl-3-carboxylic acid (1-pyrazin-2-yl-ethyl)-amide] |
| 5.13 | 282 |  |  | Cc1ccc(-c2cc(C(=O)NC(C)c3cnccn3)cc(-n3ncnc3C(C)O)c2)cc1 (stereo not drawn) [Compound 49, 5-[5-(1-Hydroxy-ethyl)-[1,2,4]triazol-1-yl]-4′-methyl-biphenyl-3-carboxylic acid (1-pyrazin-2-yl-ethyl)-amide] |
| 26.9 | 537 |  |  | COc1ncnn1-c1cc(C(=O)NC(C)c2cnccn2)cc(-c2ccc(Cl)cc2)c1 (stereo not drawn) [Compound 50, 4′-Chloro-5-(5-methoxy-[1,2,4]triazol-1-yl)-biphenyl-3-carboxylic acid (1-pyrazin-2-yl-ethyl)-amide] |
| 200 | 2950 |  |  | CC(NC(=O)c1cc(-c2ccc(Cl)cc2)cc(-n2cncn2)c1)c1cnccn1 (stereo not drawn) [Compound 51, 4′-Chloro-5-[1,2,4]triazol-1-yl-biphenyl-3-carboxylic acid (1-pyrazin-2-yl-ethyl)-amide] |
